Test results: DBAASP
≈ marks a conversion by molar mass, not a printed value.

What was measured:
Assay in all cases: ≥ marks a high value that may be exact or a test limit, other limits are often not marked, values filed in µg/mL are converted to µM
[1] = tested on: Staphylococcus epidermidis ATCC 51625
[2] = tested on: Enterococcus faecium ATCC 700221
[3] = tested on: Staphylococcus aureus ATCC 33591
[4] = tested on: Acinetobacter baumannii ATCC 17978D-5
[5] = tested on: Pseudomonas aeruginosa ATCC 19660
[6] = tested on: Klebsiella aerogenes ATCC 13048
[7] = tested on: Streptococcus pneumoniae ATCC 49619
[8] = tested on: Pseudomonas aeruginosa ATCC 27853
[9] = tested on: Stenotrophomonas maltophilia
[10] = tested on: Achromobacter xylosoxidans
Pseudomonas aeruginosa = tested on: Pseudomonas aeruginosa
[11] = tested on: Stenotrophomonas maltophilia MTCC 1890
[12] = tested on: Staphylococcus aureus MTCC 3160
[13] = tested on: Bordetella bronchiseptica MTCC 6837
[14] = tested on: Salmonella enterica MTCC 9844
[15] = tested on: Vibrio cholerae MTCC 3904
[16] = tested on: Alcaligenes faecalis MTCC 1937
[17] = tested on: Pseudomonas aeruginosa MTCC 3542
[18] = tested on: Citrobacter koseri MTCC 1657
[19] = tested on: Klebsiella aerogenes MTCC 111
[20] = tested on: Escherichia coli K12 MG1655
[21] = tested on: Alkalihalobacillus alcalophilus MTCC 860
[22] = tested on: Acinetobacter baumannii MTCC 9829
[23] = tested on: Klebsiella oxytoca MTCC 2275
[24] = tested on: Pluralibacter gergoviae MTCC 3826
[25] = tested on: Corynebacterium glutamicum MTCC 2679
[26] = tested on: Shigella boydii MTCC 11947
[27] = tested on: Citrobacter freundii MTCC 1658
[28] = tested on: Shigella flexneri MTCC 1457
[29] = tested on: Salmonella enterica subsp. enterica serovar Typhimurium ATCC 14028
[30] = tested on: Haemophilus influenzae MTCC 621
[31] = tested on: Proteus vulgaris MTCC 1771
[32] = tested on: Enterococcus faecalis MTCC 439
[33] = tested on: Klebsiella pneumoniae MTCC 7407
[34] = tested on: Proteus mirabilis MTCC 3158
[35] = tested on: Staphylococcus haemolyticus MTCC 3383

MIC [1]	MIC [2]	MIC [3]	MIC [4]	MIC [5]	MIC [6]	MIC [7]	MIC [8]	SMILES	MIC [11]	MIC [12]	MIC [13]	MIC [14]	MIC [15]	MIC [16]	MIC [17]	MIC [18]	MIC [19]	MIC [20]	MIC [21]	MIC [22]	also measured
21.1 µM (≈ 64 µg/mL)	21.1 µM (≈ 64 µg/mL)	21.1 µM (≈ 64 µg/mL)	21.1 µM (≈ 64 µg/mL)	21.1 µM (≈ 64 µg/mL)	21.1 µM (≈ 64 µg/mL)	21.1 µM (≈ 64 µg/mL)	> 21.1 µM	C[C@H](NC(=O)[C@H](Cc1ccccc1)NC(=O)[C@H](C)NC(=O)[C@@H](N)Cc1ccccc1)C(=O)N[C@@H](Cc1ccccc1)C(=O)N[C@@H](CCCCN)C(=O)N[C@@H](C)C(=O)N[C@@H](Cc1ccccc1)C(=O)N[C@@H](CCCCN)C(=O)N[C@@H](CCCCN)C(=O)N[C@@H](C)C(=O)N[C@@H](Cc1ccccc1)C(=O)N[C@@H](CCCCN)C(=O)N[C@@H](CCCCN)C(=O)N[C@@H](Cc1ccccc1)C(=O)N[C@@H](CCCCN)C(=O)N[C@@H](CCCCN)C(=O)N[C@@H](C)C(=O)N[C@@H](Cc1ccccc1)C(=O)N[C@@H](CCCCN)C(=O)N[C@@H](CCCCN)C(=O)N[C@@H](C)C(=O)N[C@@H](Cc1ccccc1)C(=O)NCC(=O)N1CCC[C@H]1C(=O)N[C@@H](CS)C(=O)O [FAFAFKAFKKAFKKFKKAFKKAFGPC]													
								CC[C@H](C)[C@H](NC(=O)[C@H](CCCCN)NC(=O)[C@H](CCC(N)=O)NC(=O)CNC(=O)[C@@H](NC(=O)[C@H](CCCCN)NC(=O)[C@H](CCCCN)NC(=O)[C@H](CC(C)C)NC(=O)[C@H](CCCCN)NC(=O)[C@H](CCC(=O)O)NC(=O)[C@H](CCCCN)NC(=O)[C@@H](NC(=O)[C@H](CCCCN)NC(=O)[C@H](CC(N)=O)NC(=O)[C@H](CCCN=C(N)N)NC(=O)[C@H](Cc1ccccc1)NC(=O)[C@H](CCCCN)NC(=O)[C@H](CCCN=C(N)N)NC(=O)[C@H](CC(C)C)NC(=O)[C@H](CCCN=C(N)N)NC(=O)[C@H](CCCCN)NC(=O)[C@@H](N)CCCN=C(N)N)[C@@H](C)CC)[C@@H](C)CC)C(=O)O [RKRLRKFRNKIKEKLKKIGQKI]													MIC [9]: 4.03 µM (≈ 11.3 µg/mL); MIC [10]: 2.01 µM (≈ 5.66 µg/mL); MIC (Pseudomonas aeruginosa): 1.42 µM (≈ 4 µg/mL)
								CC[C@H](C)[C@H](NC(=O)[C@H](Cc1cnc[nH]1)NC(=O)[C@H](Cc1cnc[nH]1)NC(=O)[C@@H](NC(=O)[C@@H](NC(=O)[C@H](CCCCN)NC(=O)[C@@H](NC(=O)[C@@H](NC(=O)[C@H](CCCCN)NC(=O)[C@H](Cc1cnc[nH]1)NC(=O)[C@H](Cc1ccccc1)NC(=O)[C@H](C)NC(=O)[C@H](CO)NC(=O)[C@H](CC(C)C)NC(=O)[C@@H](N)C(C)C)C(C)C)[C@@H](C)CC)[C@@H](C)CC)[C@@H](C)CC)C(=O)N[C@@H](CO)C(=O)N[C@@H](Cc1cnc[nH]1)C(=O)N[C@@H](Cc1ccccc1)C(=O)O [VLSAFHKVIKIIHHISHF]	≥ 60.2 µM	≥ 60.2 µM	1.88 µM (≈ 4 µg/mL)	15 µM (≈ 32 µg/mL)	≥ 60.2 µM	≥ 60.2 µM	≥ 60.2 µM	7.52 µM (≈ 16 µg/mL)	≥ 60.2 µM	15 µM (≈ 32 µg/mL)	15 µM (≈ 32 µg/mL)	7.52 µM (≈ 16 µg/mL)	MIC [23]: ≥ 60.2 µM; MIC [24]: ≥ 60.2 µM; MIC [25]: 1.88 µM (≈ 4 µg/mL); MIC [26]: 7.52 µM (≈ 16 µg/mL); MIC [27]: ≥ 60.2 µM; MIC [28]: 3.76 µM (≈ 8 µg/mL); MIC [29]: > 60.2 µM; MIC [30]: 3.76 µM (≈ 8 µg/mL); MIC [31]: ≥ 60.2 µM; MIC [32]: ≥ 60.2 µM; MIC [33]: ≥ 60.2 µM; MIC [34]: ≥ 60.2 µM; MIC [35]: 15 µM (≈ 32 µg/mL)
								CC[C@H](C)[C@H](NC(=O)[C@H](CCCCN)NC(=O)[C@H](Cc1ccccc1)NC(=O)[C@H](C)NC(=O)[C@H](C)NC(=O)[C@H](CCCCN)NC(=O)[C@@H](NC(=O)[C@H](CC(C)C)NC(=O)CNC(=O)[C@H](CCCCN)NC(=O)[C@H](Cc1c[nH]c2ccccc12)NC(=O)[C@@H](N)Cc1ccccc1)C(C)C)C(=O)N[C@H](C(=O)N[C@@H](Cc1cnc[nH]1)C(=O)N[C@@H](C)C(=O)NCC(=O)N[C@@H](CO)C(=O)O)C(C)C [FWKGLVKAAFKIVHAGS]	≥ 68.8 µM	≥ 68.8 µM	4.3 µM (≈ 8 µg/mL)	≥ 68.8 µM	≥ 68.8 µM	≥ 68.8 µM	≥ 68.8 µM	≥ 34.4 µM	≥ 68.8 µM	≥ 34.4 µM	8.61 µM (≈ 16 µg/mL)	8.61 µM (≈ 16 µg/mL)	MIC [23]: ≥ 34.4 µM; MIC [24]: ≥ 68.8 µM; MIC [25]: 1.08 µM (≈ 2 µg/mL); MIC [26]: ≥ 68.8 µM; MIC [27]: ≥ 68.8 µM; MIC [28]: ≥ 68.8 µM; MIC [29]: > 68.8 µM; MIC [30]: ≥ 68.8 µM; MIC [31]: ≥ 68.8 µM; MIC [32]: ≥ 68.8 µM; MIC [33]: ≥ 68.8 µM; MIC [34]: ≥ 68.8 µM; MIC [35]: 8.61 µM (≈ 16 µg/mL)
1.76 µM (≈ 4 µg/mL)	28.2 µM (≈ 64 µg/mL)	28.2 µM (≈ 64 µg/mL)	28.2 µM (≈ 64 µg/mL)	28.2 µM (≈ 64 µg/mL)	28.2 µM (≈ 64 µg/mL)	28.2 µM (≈ 64 µg/mL)	> 28.2 µM	CC[C@H](C)[C@H](NC(=O)[C@H](CCCCN)NC(=O)[C@H](C)NC(=O)[C@H](CCCN=C(N)N)NC(=O)[C@H](CC(C)C)NC(=O)[C@H](CCCN=C(N)N)NC(=O)[C@@H](NC(=O)[C@H](CCCCN)NC(=O)[C@@H](NC(=O)[C@H](CCCCN)NC(=O)[C@H](C)NC(=O)[C@H](CCCN=C(N)N)NC(=O)[C@H](CC(C)C)NC(=O)[C@H](CCCCN)NC(=O)[C@H](Cc1ccccc1)NC(=O)CNC(=O)[C@@H](N)CCSC)[C@@H](C)CC)C(C)C)C(=O)N[C@@H](CCCCN)C(=O)N[C@@H](CC(C)C)C(=O)O [MGFKLRAKIKVRLRAKIKL]													
